What all share (experiment): NCI tumour cell line growth inhibition, 48 h
Experiment [1] has as its system PC-3 prostate.
Experiment [2] has as its system MCF7 breast.
Experiment [3] has as its system MDA-MB-435.
For experiment [4], the system named is NCI-H226 lung.
Experiment [5] relates to SK-MEL-28 melanoma.
Experiment [6] deals with SK-MEL-2 melanoma.
Experiment [7] concerns NCI/ADR-RES ovarian.
Experiment [8] relates to SR leukemia.
The test system of experiment [9] is TK-10 renal.
Experiment [10] has as its system HCT-116 colon.
Experiment [11] has as its system K-562 leukemia.
Experiment [12] relates to UACC-62 melanoma.
The test system of experiment [13] is MALME-3M melanoma.
Experiment [14] deals with OVCAR-3 ovarian.
Experiment [15] concerns IGROV1 ovarian.
In experiment [16] the test system is MOLT-4 leukemia.
The test system of experiment [17] is HCT-15 colon.
The subject of experiment [18] is OVCAR-4 ovarian.

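Following 48 hours of exposure in 96-well plates, responses at five concentrations were used to interpolate endpoints linearly. TGI: concentration producing complete growth inhibition.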

For six compounds, TGI results are on record in PubChem BioAssay (NCI).

With `O=C1CSC(c2cccc([N+](=O)[O-])c2)N1c1ccc(-n2c(-c3ccccc3)nc3ccccc3c2=O)cc1` (configuration not stated), the TGI in [1], in experiment [2], in [3], in experiment [4], in experiment [5] and in experiment [6] was over 100 µM throughout. Besides, the TGI in experiment [7], in experiment [8], in experiment [9], in [10], in experiment [11] and in experiment [12] was over 100 µM throughout. Further, the TGI in experiment [13], in experiment [14], in experiment [15], in experiment [16], in experiment [17] and in [18] was over 100 µM throughout.
On to `CC(C)(C)c1cc(O)ccc1O`, for which the TGI in experiment [1] is 5.3 µM; in [2] it was over 100 µM; in [3], over 71.2 µM; in [4], over 100 µM; in [5], over 100 µM; in experiment [6], 3.18 µM. Moreover, the TGI is over 100 µM in [7]; 26.6 µM in experiment [8]; 22.2 µM in experiment [9]; over 72.9 µM in experiment [10]; over 100 µM in experiment [11]; over 100 µM in experiment [12]. In addition, the TGI in [13] was over 27.6 µM; in experiment [14], over 70 µM; in experiment [15], over 100 µM; in experiment [16] it was 27.1 µM; in experiment [17], over 100 µM; in experiment [18] it was over 71.5 µM.
`COI1NC(=O)c2ccccc21`: the TGI in [1], in [2], in experiment [3], in experiment [4], in [5] and in experiment [6] was over 100 µM in each case. The TGI in experiment [7], in experiment [8], in [9], in experiment [10], in experiment [11] and in [12] was over 100 µM throughout. The TGI in experiment [13], in [14], in experiment [15], in experiment [16], in experiment [17] and in experiment [18] was over 100 µM each time.
Take `CC(=O)O[C@H]1[C@H](OC(=O)CC(C)(O)CC(=O)O)C[C@]2(C)C3=C(CCC2C1(C)C)[C@]1(C)CC[C@H]([C@H]2CC[C@H](C(C)(C)O)OC2O)[C@@]1(C)[C@@H](O)C3` (some centres not stated): the TGI in [1] was found to be 33.2 µM; in [2], 45.8 µM; in [3], 35.1 µM; in experiment [4], 53.8 µM; in experiment [5], 31.5 µM; in experiment [6] it was 37.1 µM. The TGI in experiment [7] is over 100 µM; in [8], 60.1 µM; in [9] it was 63.4 µM; in [10] it was 44.7 µM; in experiment [11], 76.5 µM; in experiment [12] it was 37 µM. For the same compound, the TGI in [13] came to 57.3 µM; in experiment [14] it was 30.4 µM; in [15], 30.8 µM; in experiment [16], 40.9 µM; in experiment [17], 34.9 µM; in experiment [18], 37.8 µM.
Take `Cn1c2ccccc2c(=O)c2cccc(C(=O)NC(CCC(N)=O)C(=O)O)c21` (configuration not stated): the TGI in experiment [1], in [2], in experiment [3], in experiment [4], in experiment [5] and in experiment [6] was over 100 µM each time. Besides, the TGI in experiment [7], in [8], in [9], in experiment [10], in experiment [11] and in experiment [12] was over 100 µM in each case. The TGI in [13], in experiment [14], in experiment [15], in [16], in experiment [17] and in experiment [18] was over 100 µM in each case.
As for `COc1cc(/C=C/C(=O)C2(C(=O)/C=C/c3cc(OC)c(OC)c(OC)c3)CCCCC2)cc(OC)c1OC`, the TGI is over 100 µM in [1]; over 100 µM in [2]; 42.5 µM in [3]; over 100 µM in experiment [4]; over 100 µM in [5]; over 100 µM in [6]. The TGI in experiment [7] is over 100 µM; in experiment [8] it was over 100 µM; in experiment [9] it was over 100 µM; in experiment [10], over 100 µM; in experiment [11] it was over 100 µM; in experiment [12], 53.8 µM. Besides, the TGI in experiment [13] was over 100 µM; in [14], 58.4 µM; in [15] it was over 100 µM; in [17] it was over 100 µM; in experiment [18] it was over 100 µM.
